Here are results for one compound from article PMC8808171, “Nonselective TRPC channel inhibition and suppression of aminoglycoside-induced premature termination codon readthrough by the small molecule AC1903” (The Journal of Biological Chemistry, 2022).

One assay addresses T1, TRPV4:V4 (Homo sapiens, UniProt Q9HBA0).
T1 construct: expressed in transfected cells
The assay can be described thus: [Ca2+]i recordings (Fura-2), TRPV4:V4 in CHO cells. To be noted: activator 4α-PDD. It counts as cell-based. On the procedure: Based on the findings described above, we wondered whether AC1903—which is typically used as a TRPC5 inhibitor at concentrations of 30–100 μM in cellular assays ([29], [56])—might have limited selectivity for TRPC5 channels and whether its effect on intracellular G418 levels and PTC readthrough might be the consequence of inhibition of other or multiple targets. All well-characterized TRPC channel inhibitors reported to date modulate multiple TRP(C) channels ([34], [35], [36]). […] Because limited data for the selectivity of AC1903 are available in the public domain, we decided to profile AC1903 against a selection of calcium-permeable cation channels by intracellular calcium ([Ca^2+]i) recordings using well-characterized cell lines and TRP channel activators ([46], [57], [58]), and the Ca^2+ indicator Fura-2. In these assays, cells (HEK 293, HEK T-REx, or CHO) overexpressing the relevant ion channel protein and loaded with Fura-2 AM (a cell-permeable precursor of Fura-2) were preincubated with various concentrations of AC1903 or vehicle (DMSO) for 30 min. Then, changes in ratiometric fluorescence (from background) were recorded upon addition of the respective ion channel activator. […]

The target in another assay is T2, TRPC4 (Homo sapiens, UniProt Q9UBN4).
T2 construct: expressed in transfected cells; host or cells: HEK T-REx (tetracycline-induced)
T2 sequence (Q9UBN4 1-893 isoform Q9UBN4-2): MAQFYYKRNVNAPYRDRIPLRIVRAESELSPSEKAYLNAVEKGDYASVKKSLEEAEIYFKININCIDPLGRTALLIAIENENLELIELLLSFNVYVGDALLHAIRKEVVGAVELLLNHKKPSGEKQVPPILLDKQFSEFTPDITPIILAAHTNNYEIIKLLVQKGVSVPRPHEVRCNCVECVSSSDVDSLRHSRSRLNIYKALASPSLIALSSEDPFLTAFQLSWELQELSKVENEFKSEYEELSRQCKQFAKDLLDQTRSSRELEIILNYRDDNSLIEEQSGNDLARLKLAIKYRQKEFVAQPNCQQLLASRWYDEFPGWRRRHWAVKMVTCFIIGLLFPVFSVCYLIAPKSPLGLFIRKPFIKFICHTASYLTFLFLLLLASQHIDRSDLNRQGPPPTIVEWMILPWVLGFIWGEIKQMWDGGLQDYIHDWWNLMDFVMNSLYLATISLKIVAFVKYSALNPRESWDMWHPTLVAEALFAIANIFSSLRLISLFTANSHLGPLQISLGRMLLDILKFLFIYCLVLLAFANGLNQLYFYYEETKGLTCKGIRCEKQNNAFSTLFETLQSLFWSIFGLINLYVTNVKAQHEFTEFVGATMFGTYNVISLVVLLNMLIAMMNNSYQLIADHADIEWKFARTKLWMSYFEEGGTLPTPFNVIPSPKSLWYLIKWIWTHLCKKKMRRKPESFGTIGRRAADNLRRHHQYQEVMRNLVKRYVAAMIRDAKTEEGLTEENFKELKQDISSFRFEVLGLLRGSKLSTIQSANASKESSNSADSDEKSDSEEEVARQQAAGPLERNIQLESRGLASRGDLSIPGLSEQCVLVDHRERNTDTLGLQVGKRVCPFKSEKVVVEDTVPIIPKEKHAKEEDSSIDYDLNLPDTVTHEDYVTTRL
Kind of assay: Whole-cell patch-clamp recordings of EA-activated TRPC4 currents in HEK T-REx cells. It counts as cell-based. To be noted: EA 30 nM. On the procedure:
B) Representative current–voltage relationship for one (Tet+) HEK T-Rex cell expressing TRPC4, showing current after activation by EA (30 nM) and subsequent inhibition by addition of AC1903 (10 μM). C, quantified data from experiments represented by (A) (scatter plots showing current amplitudes at +100 mV (black circles) or −100 mV (white circles) from three independent experiments; bars represent mean ± SD; n = 3). ∗ indicates statistically significant difference between samples according to paired t test (p < 0.05). EA, (-)-englerin A; TRPC, transient receptor potential canonical.
For electrophysiology experiments, cells were plated at a low density of 20 to 30% onto round coverslips (13 mm diameter or 5 × 5 mm), and TRPC4 expression in HEK T-REx was induced with 1 μg ml^−1 tetracycline 24 h before experimentation. Experiments were carried out at room temperature. […] The patch-clamp currents were recorded using an Axopatch 200B amplifier, digitized by a Digidata 1440 and recorded to a computer using pCLAMP10 (Molecular Devices). The data were filtered at 1 kHz and analyzed offline using Clampfit 10.7 software and Origin 2019b software (OriginLab). […]
Inhibition of G418-induced premature stop codon readthrough […]
For orientation: Patch clamp records ionic current or voltage across a cell membrane.

T1 sequence (Q9HBA0 whole entry): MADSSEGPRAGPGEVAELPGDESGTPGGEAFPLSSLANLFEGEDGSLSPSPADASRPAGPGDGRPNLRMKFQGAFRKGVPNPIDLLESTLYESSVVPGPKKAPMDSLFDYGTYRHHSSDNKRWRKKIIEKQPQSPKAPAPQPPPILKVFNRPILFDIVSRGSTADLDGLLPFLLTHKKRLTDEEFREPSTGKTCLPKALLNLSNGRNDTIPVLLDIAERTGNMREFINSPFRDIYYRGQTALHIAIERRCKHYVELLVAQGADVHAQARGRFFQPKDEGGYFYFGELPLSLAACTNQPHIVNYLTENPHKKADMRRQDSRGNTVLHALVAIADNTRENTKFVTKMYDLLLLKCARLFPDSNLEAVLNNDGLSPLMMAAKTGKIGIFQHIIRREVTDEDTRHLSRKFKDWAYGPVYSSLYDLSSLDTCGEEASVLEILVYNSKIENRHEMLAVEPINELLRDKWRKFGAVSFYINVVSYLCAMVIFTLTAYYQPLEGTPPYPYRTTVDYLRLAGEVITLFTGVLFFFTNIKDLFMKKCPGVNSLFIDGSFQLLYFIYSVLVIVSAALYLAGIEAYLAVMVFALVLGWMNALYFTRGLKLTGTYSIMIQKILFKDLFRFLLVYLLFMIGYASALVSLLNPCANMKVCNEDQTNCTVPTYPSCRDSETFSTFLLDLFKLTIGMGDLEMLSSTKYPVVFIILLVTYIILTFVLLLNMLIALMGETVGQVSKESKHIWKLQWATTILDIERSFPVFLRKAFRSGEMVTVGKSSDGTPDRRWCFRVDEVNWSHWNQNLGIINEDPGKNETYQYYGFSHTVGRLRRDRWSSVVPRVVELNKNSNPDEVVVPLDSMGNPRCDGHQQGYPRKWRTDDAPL

`c1ccc(Cn2c(NCc3ccco3)nc3ccccc32)cc1` [AC1903] came in with an IC50 against TRPV4:V4 (CHO) of 19 µM. Moreover, on TRPV4:V4, the Hill slope was -1.7. Moreover, the “inhibition of EA-activated currents” value on TRPC4 (10 μM AC1903, whole-cell patch clamp) is “fully and reversibly inhibited”. On TRPC4 (AC1903 0.3–30 μM), the “inhibition of EA-activated TRPC4 currents, cumulative addition” value was “concentration-dependent inhibition”.

Broadly, the IC50 is the concentration that gives 50% inhibition. A low value points to higher potency. As usually defined, the Hill slope is the slope factor of the fitted curve.
